The values that follow come from patent US20120202288A1, “COMPOSITIONS COMPRISING CYCLIC AMP ENHANCERS AND/OR EP LIGANDS, AND METHODS OF PREPARING AND USING THE SAME” (FATE THERAPEUTICS, INC., priority 2009, published 2012).

Data set [1] relates to murine embryonic stem cell. The following applies: cited from earlier work.
The test system of a further data set is dendritic cell (DC). The conditions noted are these: ex vivo or in vitro; withdrawal of growth factors or ceramide; cited from earlier work.
The next data set has as its system hepatic stellate cells. The conditions noted are these: cited from earlier work.
In a further data set the test system is transplanted stem cells. The following applies: injection shortly after marrow cell graft; cited from earlier work.
Data set [2] concerns human umbilical cord-derived CD34+ cells. The following applies: apoptosis induced by nitric oxide (NO) or serum deprivation; cited from earlier work.
The subject of data set [3] is hematopoietic stem cells (HSCs). Description: Ex vivo treatment of HSCs prior to transplant, engraftment of donor HSCs. The format is in vivo. The following applies: bone marrow cells incubated with 10 μM at 4° C. for one hour, then transplanted into allogeneic subject. The protocol: Bone marrow cells containing HSCs are obtained directly by removal from the hip of a donor subject using a needle and syringe. The heterogeneous mixture of bone marrow cells is transferred to two separate tissue culture flasks, and a suitable growth medium is provided.
262 μl of a 10 mM solution of 16,16-dimethyl PGE2 in DMSO is added to the cells in the first tissue culture flask, to a final working concentration of 10 μM of 16,16-dimethyl PGE2. The same amount of DMSO without agent is added to the second flask as a control, and the cells in both flasks are incubated at 4° C. (e.g., in an ice bath) for one hour. The 16,16-dimethyl PGE2 is at least 90% pure as measured by HPLC, and is produced by good manufacturing practice (GMP).
After incubation of the HSCs in the ice bath, the cells from each flask are administered to separate, but otherwise genetically identical subjects. These subjects are both allogeneic to the donor cells. The subjects are then observed for engraftment of the donor HSCs, using markers that are specific for the donor cells.

Data set [4] is described as follows: Stability of 16,16-dimethyl PGE2 formulation, storage at −20° C. Type of data set: physicochemical. The conditions noted are these: for Assay (% LC): 10 mM in DMSO, 2 ml glass vial; for Purity (%): stability. On the procedure:
(§1) 16,16-dimethyl PGE2 and its related substances were separated on a Phenomenex, Synergi Hydro RP 4μ HPLC column with gradient elution conditions and detected at 205 nm. The assay of 16,16-dimethyl PGE2 was determined by comparing the 16,16-dimethyl PGE2 peak area of the test samples with that of a reference standard of known concentration and purity. The levels of the impurities and degradation products were determined from the peak area ratio of each individual impurity to the total peak area of the 16,16-dimethyl PGE2 and all impurities and degradation products. The identify of 16,16-dimethyl PGE2 was confirmed by comparing the retention time of the main peak of the test sample against that in the reference standard.
(§2) Stability tests were performed on formulations of 16,16-dimethyl PGE2 stored at either −80° C. or −20° C. for up to six months. These clinical formulations were composed of 10 mM 16,16-dimethyl PGE2 in […] DMSO, and were stored in a 2 ml Type I clear glass vial with a 13 mm West 4432/50 Teflon coated stopper. The results are shown in Tables 3 (−80° C.) and 4 (−20° C.) below.

A short description of data set [5]: Stability of 16,16-dimethyl PGE2 formulation, storage at −80° C. The format is physicochemical. The conditions noted are these: for Assay (% LC): 10 mM in DMSO, 2 ml glass vial; for Purity (%): stability. The protocol:
as §1, §2

The conditions of data set [6]: cited from earlier work.

The structures appear in SMILES notation. Like-named read-outs stand apart in the source and are kept apart here.

In the case of `CCCCC[C@H](O)/C=C/[C@H]1[C@H](O)CC(=O)[C@@H]1C/C=C\CCCC(=O)O` [PGE2, Prostaglandin E2], the “amplification of multipotent progenitors” value in data set [1] is “cause amplification of multipotent progenitors”. For the same compound, the “protection of DC against apoptosis” value in the data set on dendritic cell (DC) is reported as “protects DC”. Besides, the “mitogenesis of hepatic stellate cells” value with hepatic stellate cells is on record as “inhibits the mitogenesis”.
As for `CC(C)NCC(O)c1ccc(O)c(O)c1` (stereo not drawn) [isoproterenol], the “entry of transplanted stem cells into S phase” value with transplanted stem cells is given as “triggers the transplanted stem cells into entering S phase”.
In the case of `CCCC(=O)Nc1ncnc2c1ncn2[C@@H]1O[C@@H]2COP(=O)(O)O[C@H]2[C@H]1OC(=O)CCC` [dibutyryl-cAMP, dibutyryl cyclic adenosine 3′,5′-monophosphate], in the data set on transplanted stem cells, the “entry of transplanted stem cells into S phase” value is recorded as “triggers the transplanted stem cells into entering S phase”. In addition, in data set [2], the “survival of CD34+ cells” value was “promote survival”.
Turning to `O[C@@H]1[C@@H]2OP(O)(=S)OC[C@H]2O[C@H]1n1cnc2cc(Cl)c(Cl)cc21` (stereo partly drawn) [BIMPS, sp-5,6-DCl-BIMPS], the “survival of CD34+ cells” value in data set [2] is on record as “promote survival”.
In the case of `CCCCC(C)(C)[C@H](O)/C=C/[C@H]1[C@H](O)CC(=O)[C@@H]1C/C=C\CCCC(=O)O` [16,16-dimethyl PGE2], the “number of engrafted HSC donor cells versus control-treated cells” value in data set [3] is recorded as “significantly greater number of engrafted HSC donor cells”. For the same compound, the “Assay (% LC)” value in data set [4] (1 Month) was 98.7 % LC; in [4] (2 Months), 97.4 % LC; in data set [4] (3 Months), 98.8 % LC; in data set [4] (6 Months), 97.5 % LC; in data set [4] (Time Zero), 98.1 % LC; in data set [5] (1 Month), 98.5 % LC. Moreover, the “Assay (% LC)” value in [5] (2 Months) is 97.7 % LC; in [5] (3 Months), 98.5 % LC; in data set [5] (6 Months) it was 98.6 % LC; in data set [5] (Time Zero) it was 98.1 % LC. The “Product Appearance” value in [4] (1 Month), in [4] (2 Months), in data set [4] (3 Months), in data set [4] (6 Months), in data set [4] (Time Zero) and in data set [5] (1 Month) was “conforms” throughout. In addition, the “Product Appearance” value in data set [5] (2 Months), in [5] (3 Months), in [5] (6 Months) and in data set [5] (Time Zero) was “conforms” in each case. Besides, the “Total Related Substances (%)” value in data set [4] (1 Month) was determined as 5.22%; in data set [4] (2 Months), 5.52%; in data set [4] (3 Months), 5.54%; in data set [4] (6 Months), 5.95%; in data set [4] (Time Zero), 5.52%; in data set [5] (1 Month) it was 5.33%. Also, the “Total Related Substances (%)” value in data set [5] (2 Months) was determined as 5.51%; in data set [5] (3 Months), 5.35%; in data set [5] (6 Months) it was 5.51%; in data set [5] (Time Zero), 5.52%. Besides, the pH in data set [4] (1 Month) is 4.8; in data set [4] (2 Months) it was 4.7; in [4] (3 Months), 4.6; in [4] (6 Months), 4.6; in data set [4] (Time Zero), 4.5; in data set [5] (1 Month), 4.8. The pH in data set [5] (2 Months) came to 4.7; in data set [5] (3 Months), 4.8; in data set [5] (6 Months), 4.7; in data set [5] (Time Zero), 4.5. Also, the “Purity (%)” value was 94.8% in data set [4] (1 Month); 94.5% in data set [4] (2 Months); 94.5% in data set [4] (3 Months); 94.0% in data set [4] (6 Months); 94.5% in data set [4] (Time Zero); 94.7% in data set [5] (1 Month). The “Purity (%)” value in data set [5] (2 Months) is 94.5%; in data set [5] (3 Months), 94.7%; in [5] (6 Months) it was 94.5%; in data set [5] (Time Zero) it was 94.5%.
With `CCCC[C@H](C)C[C@H](O)/C=C/[C@H]1[C@H](O)CC(=O)[C@@H]1CC(=O)C1CCC(C(=O)O)CC1` (stereo partly drawn) [ONO-DI-004], the “effect on core temperature (Tc)” value in data set [6] (in vivo) is given as “increase the core temperature (Tc) in a dose-dependent manner”.
With `CCCCC[C@@H](/C=C/[C@H]1[C@H](OC)CC(=O)[C@@H]1C/C=C\CCCC(=O)O)OC` [ONO-AE-248], the “effect on core temperature (Tc)” value in [6] (20 nmol) is “increased the Tc”.
